Article PMC8868346, “Novel Series of Dual NRF2 Inducers and Selective MAO-B Inhibitors for the Treatment of Parkinson’s Disease” (Antioxidants, 2022)
Where two headings read alike, the source gives them in different places.

How the values were obtained:
NRF2 = NRF2 induction, luciferase activity in AREc32 reporter cells; assay type: cell-based, human; details: for fold potentiation of NRF2 induction compared to the corresponding -OMe derivative: 11, 12 vs 10, 14, 15 vs 13; for EC50: Homo sapiens, read-out: CD (µM) NRF2 Induction; for EC50 / CD (µM) NRF2 Induction: AREc32 cells, 24 h, concentration required to double luciferase activity compared to basal
Description: Cells were used from the third to twelfth passage.
AREc32 cells were stably transfected with the plasmid pGL-8xARE that implements 8 copies of the antioxidant response element (ARE) sequences followed by luciferase reporter gen. Therefore, NRF2 induction can be related to the activation of ARE sequences by measuring luciferase activity in terms of luminescence production. For NRF2 induction experiments, cells were plated in 96 white flat bottom well plates (20,000 cells/well). After 24 h, cells were incubated with selected compounds at the desired concentrations in duplicates for 24 h. The Luciferase Assay System (Promega E1500) was used according to provider protocol and luminescence was quantified in an Orion II microplate luminometer (Berthold, Germany). Fold induction of luciferase activity was normalized to basal conditions. Data were expressed as CD values, which means the concentration needed to duplicate the luciferase activity compared to basal conditions. CD values were calculated from dose–response curves fitted by non-linear regression for each compound after logarithmic transformation of the data using GraphPad Prism 8.0 software.

hrMAO-B = target: T1, hrMAO-B (Homo sapiens, UniProt P27338); assay: Inhibition of monoamine oxidase B (Amplex UltraRed, tyramine); assay type: biochemical; details: for Selectivity Index (MAO-A/MAO-B): ratio IC50 MAO-A/IC50 MAO-B
T1 construct: purchased Sigma–Aldrich
T1 sequence (P27338 1-520): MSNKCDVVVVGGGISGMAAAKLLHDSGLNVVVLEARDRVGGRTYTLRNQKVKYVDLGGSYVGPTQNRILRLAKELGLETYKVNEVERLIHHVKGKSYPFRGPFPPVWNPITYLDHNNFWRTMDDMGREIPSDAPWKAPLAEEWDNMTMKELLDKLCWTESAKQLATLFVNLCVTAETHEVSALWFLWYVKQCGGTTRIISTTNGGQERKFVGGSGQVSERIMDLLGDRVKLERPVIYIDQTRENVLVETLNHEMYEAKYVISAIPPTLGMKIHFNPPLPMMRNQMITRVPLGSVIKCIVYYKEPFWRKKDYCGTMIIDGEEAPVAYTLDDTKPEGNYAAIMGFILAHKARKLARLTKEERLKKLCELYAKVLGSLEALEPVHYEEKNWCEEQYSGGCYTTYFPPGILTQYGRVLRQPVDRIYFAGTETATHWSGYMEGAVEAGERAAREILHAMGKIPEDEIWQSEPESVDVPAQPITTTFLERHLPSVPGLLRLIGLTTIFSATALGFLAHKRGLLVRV

hrMAO-A = target: T2, hrMAO-A (Homo sapiens, UniProt P21397); assay: Inhibition of monoamine oxidase A (Amplex UltraRed, tyramine); assay type: biochemical
T2 construct: purchased Sigma–Aldrich
T2 sequence (P21397 1-527): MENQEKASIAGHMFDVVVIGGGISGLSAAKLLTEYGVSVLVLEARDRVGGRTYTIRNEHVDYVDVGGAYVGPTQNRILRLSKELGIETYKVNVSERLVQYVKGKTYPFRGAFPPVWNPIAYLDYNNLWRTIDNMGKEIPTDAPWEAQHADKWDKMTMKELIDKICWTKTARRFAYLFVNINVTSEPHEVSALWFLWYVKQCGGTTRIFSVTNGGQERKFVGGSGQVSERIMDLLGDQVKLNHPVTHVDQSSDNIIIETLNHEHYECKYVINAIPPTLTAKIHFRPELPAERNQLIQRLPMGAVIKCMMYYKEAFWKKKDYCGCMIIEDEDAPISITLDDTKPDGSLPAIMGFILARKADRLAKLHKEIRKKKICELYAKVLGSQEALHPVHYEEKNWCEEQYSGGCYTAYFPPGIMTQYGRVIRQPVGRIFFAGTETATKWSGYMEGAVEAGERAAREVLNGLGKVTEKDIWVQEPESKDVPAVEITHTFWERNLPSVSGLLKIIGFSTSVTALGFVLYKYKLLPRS

SH-SY5Y cells [1] = assay: Neuroprotection in SH-SY5Y against rotenone/oligomycin A (MTT); assay type: cell-based, human; details: compound 0.1 µM, 24 h pre- and 24 h co-incubation
Description: (§1) Cells were seeded at a density of 60,000 cells/well in 96-well transparent plates for 24 h. Then cells were pre-incubated with the corresponding compound at 0.1 μM. After 24 h, the medium was removed and replaced with 1% (v/v) FBS media containing the corresponding compound at 0.1 µM and the selected toxic stimuli, namely a mixture of rotenone and oligomycin A (R/O; 30/10 μM, respectively; Sigma–Aldrich, Spain) or 6-hydroxydopamine (100 µM; Sigma–Aldrich, Spain). […].

SH-SY5Y cells [2] = assay: Neuroprotection in SH-SY5Y against 6-hydroxydopamine (MTT); assay type: cell-based, human; details: 6-OHDA 100 µM; compound 0.1 µM, 24 h pre- and 24 h co-incubation
Description: as §1

SH-SY5Y = details: MTT reduction
Description: They were recovered by centrifugation at 800 rpm for 10 min. Cells from the third to twelfth passage were seeded at a density of 80,000 cells/well in 96-well plates for the neuroprotection studies.
(§2) Basal absorbance was set to 100% and results were normalized to basal conditions.
(§3) Cytotoxicity. LD50 values in several cell cultures employed
(§4) Table S2. Cytotoxicity elicited by 10-18 compounds in SH-SY5Y, AREc32 and mixed pr imary glial cultures. Viability was measured as MTT reduction in presence of increasing concentrations of der ivatives. LD50 values were calcula ted from dose-response curves. Data are expr essed as mean ± SEM of at least 3 independent experiments.
(§5) 1.3. PAMPA control compounds (BBB permeability)
(§6) Table S3. Pr ediction of the BBB passive permeability of control compounds

AREc32 = details: MTT reduction
Description: AREc32 cells, shared by CR Wolf, were grown in Dulbecco’s modified Eagle medium (DMEM) with GlutaMAX (Gibco, Invitrogen, Madrid, Spain), supplemented with 10% (v/v) filtrated fetal bovine serum (FBS; Gibco, Invitrogen, Madrid, Spain), 1% of antibiotics penicillin-streptomycin, and geneticin (0.8 mg/mL G418; Gibco, Invitrogen, Madrid, Spain). […] They were recovered by centrifugation at 800 rpm for 10 min. Cells were used from the third to twelfth passage.
as §2, §3, §4, §5, §6

[3] = system: Mixed primary glial cultures; assay: Cytotoxicity in mixed primary glial cultures (MTT); details: MTT reduction
Description: Mixed primary glial cultures were obtained from cerebral cortex of 2–5-day-old Sprague–Dawley rats. Blood vessels and meninges were first removed in Hank’s balanced salt solution (HBSS) and then forebrains were dissociated in DMEM/F12 medium. After mechanical dissociation, filtering, and centrifugation at 800 rpm for 10 min, cells were plated at a density of 30,000 cells/well in DMEM/F12 medium with 20% (v/v) FBS and 1% penicillin/streptomycin (10,000 units). […] After 5 days, medium was substituted by DMEM/F12 medium with 10% (v/v) FBS. Cells were cultured for 7–10 days before treatment.
as §2, §3, §4, §5, §6

[4] = Blood–brain barrier permeation assay (PAMPA); details: for PAMPA Prediction: BBB permeability class from Pe
[5] = system: blood-brain barrier (passive diffusion); assay: Blood–brain barrier permeation assay (PAMPA); details: PAMPA, pH 7.4
[6] = Oxygen radical absorbance capacity (ORAC) assay; details: Trolox equivalents; AAPH, fluorescein
Description: The ORAC test was performed to evaluate the oxygen free radical scavenger capacity of the compounds. […] Compounds at desired concentrations (0.03, 0.1, 0.3, 1, 3, and 10 µM) were diluted in phosphate-buffered saline (PBS; 10 mM, pH 7.4) at 37 °C and placed in a 96 black flat bottom well plate. […] A fluorescence measurement was done first to determine the basal signal. Then, 25 µL of 2, 2′-azobis-amidinopropane dihydrochloride (AAPH) (12 mM final concentration) was quickly added. All samples were measured in duplicates in three different experiments. […] Results were expressed in terms of Trolox equivalents (T.eq.), obtained by plotting net AUC versus compound concentration, then performing linear regression and normalizing slopes of the compounds considering Trolox as reference.

MAO-B = target: T3, MAO-B (Homo sapiens, UniProt P27338); assay: MAO-B reversibility assay (pre-incubation times); assay type: biochemical; details: 0, 15, 30 min pre-incubation at […] IC50
T3 construct: purchased Sigma–Aldrich
T3 sequence (P27338 1-520): T1 sequence (P27338 1-520)

[7] = system: blood-brain barrier (passive diffusion); assay: in vitro; details: PAMPA, pH 7.4
[8] = 30 min pre-incubation, 37 °C, read-out: IC50 MAO-B
[9] = 30 min pre-incubation, 37 °C, read-out: IC50 MAO-A

Row | Compound | fold potentiation of NRF2 induction compared to the corresponding -OMe derivative (NRF2) [fold] | EC50 (NRF2) [µM] | IC50 (hrMAO-B; [8]) [µM] | IC50 (hrMAO-A; [9]) [µM] | R/O (30/10 µM) Protection (%) (SH-SY5Y cells [1]) | 6-OHDA Protection (%) (SH-SY5Y cells [2]) | LD50 (µM) SH-SY5Y (SH-SY5Y) [µM] | LD50 (µM) AREc32 (AREc32) [µM] | LD50 (µM) Mixed primary glial cultures [3] [µM] | PAMPA Pe (10^−6 cm s^−1) ([4]; 100 µM, porcine brain lipid, 4 h, PBS pH 7.4) | PAMPA Prediction [4] | Papp at 4 h, 100 µM [5] [×10⁻⁶ cm/s] | CD (µM) NRF2 Induction (NRF2) | Selectivity Index (MAO-A/MAO-B) (hrMAO-B) | ORAC (T. eq.) [6] [T. eq.] | IC50 (hrMAO-B) [µM] | IC50 (hrMAO-A) [µM] | MAO-B inhibition reversibility (MAO-B) | Papp [7] [×10⁻⁶ cm/s] | MAO isozyme selectivity (hrMAO-B; MAO-B vs MAO-A)
1 | C#CCNCCc1c[nH]c2ccc(OC(=O)/C=C/c3ccc(C)cc3)cc12 [Compound 12, 3-(2-(Prop-2-yn-1-ylamino)ethyl)-1H-indol-5-yl-(E)-3-(p-tolyl)acrylate] | 10 | 2.99 ± 0.26 | 3.03 ± 0.27 | 59.1 ± 6 | 53.5 | absence of protection | 11.6 ± 0.90 | 11.1 ± 2.0 | 7.42 ± 1.3 | low Pe value | CNS − (CNS—(low BBB permeability): Pe (10^−6 cm s^−1) < 2.0) | 1.84 ± 0.48 |  |  |  |  |  |  |  | 
2 | C#CC(=O)NCCc1c[nH]c2ccc(OC(=O)/C=C/c3ccc(C)cc3)cc12 [Compound 18, 3-(2-Propiolamidoethyl)-1H-indol-5-yl-(E)-3-(p-tolyl) Acrylate] |  |  | 13.9 ± 1.2 | 81.9 ± 5.4 | 32.1 | 43.8% |  | < 1 | 1.21 ± 0.24 |  |  | 2.04 ± 3.2 | no activity | 5.89 | 1.42 ± 0.13 |  |  |  |  | 
3 | C#CCNCCc1c[nH]c2ccc(OC(=O)C=Cc3ccccc3)cc12 [Compound 11, 3-(2-(Prop-2-yn-1-ylamino)ethyl)-1H-indol-5-yl Cinnamate] | 7 | 1.8 ± 0.28 |  |  | 48.6 | absence of protection | 16.4 ± 2.32 | 7.83 ± 1.2 | 17.8 ± 2.9 |  | CNS + (CNS + (high BBB permeability): Pe (10^−6 cm s^−1) > 4.0) |  |  |  |  | 3 ± 0.21 | 43.8 ± 6.5 | reversible inhibition | 5.08 ± 1.7 | 
4 | C#CC(=O)NCCc1c[nH]c2ccc(OC(=O)C=Cc3ccccc3)cc12 [Compound 17, 3-(2-Propiolamidoethyl)-1H-indol-5-yl Cinnamate] |  |  | 50 ± 2.9 | > 100 | 49.3 | 58.4% | 9.06 ± 0.31 | < 1 |  |  |  | 3.12 ± 1.2 | no activity |  | 2.27 ± 0.08 |  |  | reversible inhibition |  | 
5 | CC(C)(C)c1cc(O)ccc1O [TBHQ, Tert-Butylhydroquinone, reference compound] |  | 1.82 ± 0.09 |  |  |  |  |  |  |  |  |  |  |  |  |  |  |  |  |  | 
6 | C#CC(=O)NCCc1c[nH]c2ccc(OC)cc12 [Compound 16, N-(2-(5-Methoxy-1H-indol-3-yl)ethyl) Propiolamide] |  | 1.35 ± 0.12 | > 100 | > 100 | 47.3 | 48.1% | 4.87 ± 0.60 |  | 8.81 ± 2.2 |  | CNS + (CNS + (high BBB permeability): Pe (10^−6 cm s^−1) > 4.0) | 6.64 ± 1.3 |  | at least 2 | 2.67 ± 0.14 |  |  |  |  | not active
7 | Cn1c(=O)c2c(ncn2C)n(C)c1=O [Caffeine, reference compound] |  |  |  |  |  |  |  |  |  |  | CNS - |  |  |  |  |  |  |  |  | 
